Results on 19 molecules are retold here after patent US20110245496A1, “Quinazoline Salt Compounds” (priority 2007, published 2011).

The nature of data set [1]: Salt solubility measurement in water. The following applies: for pH of the remaining solution: remaining solution after solubility measurement in water; for Solubility as free base / Solubility as salt / solubility: water, stirred at ambient temperature 18-20 hours, filtered, hplc assay; for solubility: thermodynamic from solid.
For data set [2], the system named is head and neck (HN5) cell line. As to the kind of experiment: Methylene blue growth inhibition assay, HN5. In kind it is cell-based. The note with it: Homo sapiens, 72 h, HN5 cells, 3 days. How it is done: (§1) Human breast (BT474), head and neck (HN5) and gastric tumor (N87) cell lines and human foreskin Fibroblasts (HFF) were cultured in low glucose DMEM (Life Technologies 12320-032) containing 10% fetal bovine serum (FBS) at 37° C. in a humidified 10% CO2, 90% air incubator. The SV40 transformed human mammary epithelial cell line HB4a was transfected with either human H-ras cDNA (HB4a r4.2) or the human c-erbB2 cDNA (HB4a c5.2). The HB4a clones were cultured in RPMI containing 10% FBS, insulin ([…]), hydrocortisone ([…]), supplemented with the selection agent hygromycin B (50 μg/ml). Cells were harvested using trypsin/EDTA, counted using a haemocytometer, and plated in […] of the appropriate media, at the following densities, in a 96-well tissue culture plate (Falcon 3075): BT474 10,000 cells/well, HN5 3,000 cells/well, N87 10,000 cells/well, HB4a c5.2 3,000 cells/well, HB4a r4.2 3,000 cells/well, HFF 2500 cells/well. The next day, compounds were diluted in DMEM containing […] gentamicin, at twice the final required concentration, from 10 mM stock solutions in DMSO. […] of these dilutions were added to the […] of media currently on the cell plates. Medium containing 0.6% DMSO was added to control wells. […] Optical density at 620 nm was measured on a microplate reader. Percent inhibition of cell growth was calculated relative to vehicle treated control wells. […]

The test system of data set [3] is gastric tumor (N87) cell line. Description: Methylene blue growth inhibition assay, N87. The following applies: Homo sapiens, 72 h, N87 cells, 3 days. Type of data set: cell-based. The method, then:
as §1

The next data set concerns breast (BT474) cell line. As to the kind of experiment: Methylene blue growth inhibition assay, BT474. The note with it: Homo sapiens, BT-474, 72 h, BT474 cells, 3 days. Type of data set: cell-based. The method, then: as §1

Where “and” joins values, the source holds several entries; their conditions need not be identical. Equal entries are not always repeated.

Consider Lapatinib Di-L-Malate, for which, in data set [1], the “pH of the remaining solution” value came to 3.2, the “Solubility as free base” value turned out to be 0.91 mg/mL and the Solubility as salt turned out to be 1.33 mg/mL.
In the case of `CS(=O)(=O)CCNCc1ccc(-c2ccc3ncnc(Nc4ccc(OCc5cccc(F)c5)c(Cl)c4)c3c2)o1` [GW572016X, N-{3-Chloro-4-[(3-fluorobenzyl)oxy]phenyl}-6-[5-({[2-(methanesulphonyl)ethyl]amino}methyl)-2-furyl]-4-quinazolinamine], the IC50 (in data set [2]; in data set [3]; with breast (BT474) cell line) was less than 5 µM each time.
On to `CS(=O)(=O)CCNCc1ccc(-c2ccc3ncnc(Nc4ccc(OCc5cccc(F)c5)c(Cl)c4)c3c2)o1.O=C(O)C[C@H](O)C(=O)O` [Mono L-malate, N-{3-Chloro-4-[(3-fluorobenzyl)oxy]phenyl}-6-[5-({[2-(methanesulphonyl)ethyl]amino}methyl)-2-furyl]-4-quinazolinamine mono-L-malate], for which the Solubility as salt in data set [1] (mono-L-malate) was found to be 0.07 mg/mL. Moreover, the solubility in data set [1] (Solubility as free base) came out at 50 µg/mL; in data set [1] (Solubility as salt), 60 µg/mL.
In the case of `CCS(=O)(=O)O.CCS(=O)(=O)O.CS(=O)(=O)CCNCc1ccc(-c2ccc3ncnc(Nc4ccc(OCc5cccc(F)c5)c(Cl)c4)c3c2)o1` [Diesylate, N-{3-Chloro-4-[(3-fluorobenzyl)oxy]phenyl}-6-[5-({[2-(methanesulphonyl)ethyl]amino}methyl)-2-furyl]-4-quinazolinamine diesylate], the solubility in data set [1] (Solubility as free base) was roughly 19700 µg/mL; in data set [1] (Solubility as salt), roughly 27200 µg/mL.
For `CS(=O)(=O)CCNCc1ccc(-c2ccc3ncnc(Nc4ccc(OCc5cccc(F)c5)c(Cl)c4)c3c2)o1.CS(=O)(=O)O.CS(=O)(=O)O` [Dimesylate, N-{3-Chloro-4-[(3-fluorobenzyl)oxy]phenyl}-6-[5-({[2-(methanesulphonyl)ethyl]amino}methyl)-2-furyl]-4-quinazolinamine dimesylate], the solubility in data set [1] (Solubility as free base) is greater than 7350 µg/mL; in data set [1] (Solubility as salt) it was greater than 10000 µg/mL.
In the case of Lapatinib Monofumarate, in data set [1], the “pH of the remaining solution” value came to 4.0 and the “Solubility as free base” value is “<LoD”.
Take `CS(=O)(=O)CCNCc1ccc(-c2ccc3ncnc(Nc4ccc(OCc5cccc(F)c5)c(Cl)c4)c3c2)o1.O=C(O)c1ccccc1.O=C(O)c1ccccc1` [Dibenzoate, N-{3-Chloro-4-[(3-fluorobenzyl)oxy]phenyl}-6-[5-({[2-(methanesulphonyl)ethyl]amino}methyl)-2-furyl]-4-quinazolinamine dibenzoate]: the figures for the solubility in data set [1] (Solubility as free base) and in data set [1] (Solubility as salt) were 40 µg/mL and 60 µg/mL, respectively.
As to `CS(=O)(=O)CCNCc1ccc(-c2ccc3ncnc(Nc4ccc(OCc5cccc(F)c5)c(Cl)c4)c3c2)o1.C[C@H](O)C(=O)O` [Mono-L-lactate, N-{3-Chloro-4-[(3-fluorobenzyl)oxy]phenyl}-6-[5-({[2-(methanesulphonyl)ethyl]amino}methyl)-2-furyl]-4-quinazolinamine mono-L-lactate], the Solubility as salt in data set [1] is 2) 7.9 mg/ml. The solubility in data set [1] (Solubility as free base) was roughly 7300 µg/mL; in data set [1] (Solubility as salt) it was 8500 µg/mL.
In the case of Lapatinib Difumarate, in data set [1], the “pH of the remaining solution” value is listed as 3.0 and the “Solubility as free base” value is reported as “<LoD”.
As to `CS(=O)(=O)CCNCc1ccc(-c2ccc3ncnc(Nc4ccc(OCc5cccc(F)c5)c(Cl)c4)c3c2)o1.O=C(O)CCC(=O)O` [Succinate, N-{3-Chloro-4-[(3-fluorobenzyl)oxy]phenyl}-6-[5-({[2-(methanesulphonyl)ethyl]amino}methyl)-2-furyl]-4-quinazolinamine monosuccinate], in data set [1], the “Solubility as free base” value was “<LoD” and the Solubility as salt result is on record as “<LoD”.
Turning to `CCS(=O)(=O)O.CS(=O)(=O)CCNCc1ccc(-c2ccc3ncnc(Nc4ccc(OCc5cccc(F)c5)c(Cl)c4)c3c2)o1` [Monoesylate, N-{3-Chloro-4-[(3-fluorobenzyl)oxy]phenyl}-6-[5-({[2-(methanesulphonyl)ethyl]amino}methyl)-2-furyl]-4-quinazolinamine monoesylate], in data set [1], the “Solubility as free base” value is 0.53 mg/mL and the Solubility as salt was determined as 0.63 mg/mL. In addition, in data set [1] (Solubility as free base), the solubility came out at 520 µg/mL. Further, the solubility in data set [1] (Solubility as salt) is 620 µg/mL.
In the case of `CS(=O)(=O)CCNCc1ccc(-c2ccc3ncnc(Nc4ccc(OCc5cccc(F)c5)c(Cl)c4)c3c2)o1.CS(=O)(=O)O.CS(=O)(=O)O.O` [Dimesylate monohydrate, N-{3-Chloro-4-[(3-fluorobenzyl)oxy]phenyl}-6-[5-({[2-(methanesulphonyl)ethyl]amino}methyl)-2-furyl]-4-quinazolinamine dimesylate monohydrate], in data set [1] (dimesylate monohydrate), the “Solubility as free base” value is on record as 1) ~4.70 mg/ml and the Solubility as salt is 1) 6.25 mg/ml. Besides, the solubility in data set [1] (Solubility as free base) is roughly 4360 µg/mL. Also, in data set [1] (Solubility as salt), the solubility is 5800 µg/mL.
On to `CS(=O)(=O)CCNCc1ccc(-c2ccc3ncnc(Nc4ccc(OCc5cccc(F)c5)c(Cl)c4)c3c2)o1.O=C(O)CC(O)(CC(=O)O)C(=O)O` [Monocitrate, N-{3-Chloro-4-[(3-fluorobenzyl)oxy]phenyl}-6-[5-({[2-(methanesulphonyl)ethyl]amino}methyl)-2-furyl]-4-quinazolinamine monocitrate], for which the solubility in data set [1] (Solubility as free base) and in data set [1] (Solubility as salt) was 10 µg/mL in each case.
Consider `CS(=O)(=O)CCNCc1ccc(-c2ccc3ncnc(Nc4ccc(OCc5cccc(F)c5)c(Cl)c4)c3c2)o1.CS(=O)(=O)O.CS(=O)(=O)O.O.O` [Dimesylate dehydrate, N-{3-Chloro-4-[(3-fluorobenzyl)oxy]phenyl}-6-[5-({[2-(methanesulphonyl)ethyl]amino}methyl)-2-furyl]-4-quinazolinamine dimesylate dihydrate], for which the solubility in data set [1] (Solubility as free base) is roughly 15300 µg/mL; in data set [1] (Solubility as salt), roughly 21300 µg/mL.
With `CS(=O)(=O)CCNCc1ccc(-c2ccc3ncnc(Nc4ccc(OCc5cccc(F)c5)c(Cl)c4)c3c2)o1.O.O=C(O)/C=C\C(=O)O.O=C(O)/C=C\C(=O)O` [Dimaleate monohydrate, N-{3-Chloro-4-[(3-fluorobenzyl)oxy]phenyl}-6-[5-({[2-(methanesulphonyl)ethyl]amino}methyl)-2-furyl]-4-quinazolinamine dimaleate monohydrate], the results for the solubility in data set [1] (Solubility as free base) and in data set [1] (Solubility as salt) were 40 µg/mL and 60 µg/mL, respectively.
Regarding `CS(=O)(=O)CCNCc1ccc(-c2ccc3ncnc(Nc4ccc(OCc5cccc(F)c5)c(Cl)c4)c3c2)o1.O=C(O)/C=C\C(=O)O.O=C(O)/C=C\C(=O)O` [Dimaleate, N-{3-Chloro-4-[(3-fluorobenzyl)oxy]phenyl}-6-[5-({[2-(methanesulphonyl)ethyl]amino}methyl)-2-furyl]-4-quinazolinamine dimaleate], in data set [1] (dimaleate), the “Solubility as free base” value was 0.15 mg/mL and 0.14 mg/mL; the Solubility as salt was 0.20 mg/mL and 0.19 mg/mL. In data set [1] (Solubility as free base), the solubility was determined as 130 µg/mL. In data set [1] (Solubility as salt), the solubility was 180 µg/mL.
Consider `CS(=O)(=O)CCNCc1ccc(-c2ccc3ncnc(Nc4ccc(OCc5cccc(F)c5)c(Cl)c4)c3c2)o1.C[C@H](O)C(=O)O.C[C@H](O)C(=O)O` [Di-L-lactate, N-{3-Chloro-4-[(3-fluorobenzyl)oxy]phenyl}-6-[5-({[2-(methanesulphonyl)ethyl]amino}methyl)-2-furyl]-4-quinazolinamine di-L-lactate], for which the solubility was greater than 10300 µg/mL in data set [1] (Solubility as free base) and greater than 13500 µg/mL in data set [1] (Solubility as salt).
On the same counts, the results for `CS(=O)(=O)CCNCc1ccc(-c2ccc3ncnc(Nc4ccc(OCc5cccc(F)c5)c(Cl)c4)c3c2)o1.CS(=O)(=O)O` [Monomesylate, N-{3-Chloro-4-[(3-fluorobenzyl)oxy]phenyl}-6-[5-({[2-(methanesulphonyl)ethyl]amino}methyl)-2-furyl]-4-quinazolinamine monomesylate] are 330 µg/mL and 390 µg/mL.
On to `CS(=O)(=O)CCNCc1ccc(-c2ccc3ncnc(Nc4ccc(OCc5cccc(F)c5)c(Cl)c4)c3c2)o1.O=S(=O)(O)c1ccccc1.O=S(=O)(O)c1ccccc1` [Dibesylate, N-{3-Chloro-4-[(3-fluorobenzyl)oxy]phenyl}-6-[5-({[2-(methanesulphonyl)ethyl]amino}methyl)-2-furyl]-4-quinazolinamine dibesylate], for which the “Solubility as free base” value in data set [1] is recorded as “<LoD”.
